# Laboratory results taken from US20230321253A1, “BIFUNCTIONAL COMPOUNDS AND PHARMACEUTICAL USES THEREOF” (RISEN (SUZHOU) PHARMA TECH CO., LTD., priority 2022, published 2023).
# Target: T1, KRAS-G12D protein (Homo sapiens, UniProt P01116, G12D)
# T1 construct: host or cells: Aspc-1 cells
# Assay: KRAS-G12D protein degradation study in Aspc-1 cells (western blot)
# Assay type: cell-based
# Conditions: ASPC1, 24 h, Aspc-1 cells treated with 50 nM compound, 24 hours; read-out: Rate of degradation (KRAS^G12D)
# Description: Aspc-1 (Cobioer, CBP60546) cells in exponential growth phase were inoculated on a 6-well cell culture plate (Corning, 3516) at density of 1E6/well; and cells in the plate were cultured in 37° C. incubator containing 5% carbon dioxide. The next day, test compounds were dissolved in DMSO (Sigma, RNBF5902) for the preparation of a 10 mM concentration stock solution. The stock solution was diluted with complete medium (RPMI-1640 supplemented with 10% fetal bovine serum, 1% penicillin-streptomycin), yielding working solutions of various concentrations. The plate, after the addition of compounds, was placed in a 5% carbon dioxide incubator, and incubated at 37° C. for 24 hours (final DMSO concentration was 0.1%). The plate was then removed from the incubator, and the cells were washed twice with precooled PBS (Gibco, 14190250), followed by addition of 80 μL RIPA lysis buffer (containing protease inhibitor (Invitrogen™, AM2696)) to each well. The adherent cells were scraped off with a cell scraper, and the cell lysate was transferred to a 1.5 mL centrifuge tube followed with a 30-minute incubation on ice. The lysate was then clarified with centrifugation at 14000 rpm for 10 min at 4° C. The supernatant was transferred into a new 1.5 mL centrifuge tube, and protein concentration was measured with BCA protein detection kit (Thermo Fisher, 23225). KRAS-G12D protein level was assessed by western blot.
# A mixture of cell lysate (40 μL) and loading buffer (10 μL 5×SDS (Beyotime, P0015L)) was denatured in a water bath at 95° C. for 10 min. The denatured protein sample, at 30 μL/well, was loaded into the corresponding well of a 4-20% Bis-Tris gel (Kingsley, M00656). Protein samples were initially electrophoresed at 80 V for 30 minutes, followed by 120 V for 40 minutes, until the bromophenol blue strip ran to an appropriate position. After electrophoresis, iBlot2 (Life Technologies, IB21001) was used to transfer the separated samples onto PVDF film. The PVDF membrane was washed with double-distilled water and then blocked in TBST (Thermo Scientific, 28360) buffer containing 5% non-fat milk, for 2 hours. Blocked membrane was rinsed with tris-buffered saline tween-20 (Thermo Scientific, 28360, TBST) three times, 10 minutes each. Membrane was then incubated with 1:1000 diluted KRAS primary antibody (CST, cat #14429S) overnight at 4° C. Membrane was rinsed as described previously followed by 1 hour incubation of secondary antibody at room temperature. After washing the film three times with TBST, ECL color developing solution was applied, and image was captured with Biorad Chemi Doc gel imager. The band gray value was quantified (Image Lab), and protein degradation level was calculated according to the following formula:
# Level of RAS protein expression=(RAS-compound/GAPDH)/(RAS-DMSO/GAPDH)
# Level of degradation (%)=(1−Rate of RAS protein expression)×100
# The symbols “−”, “+”, “++”, and “+++” indicate that the degradation level of KRAS^G12D protein induced by the test compounds was 10% or less, 11 to 30%, 31 to 60%, and greater than 60%, respectively.
# Half-maximum degradation concentrations (DC50s) of exemplary test compounds were calculated using GraphPad Prism and their values are shown in Table 6. The symbols “++++”, “+++”, “++” and “+” indicate DC50 equal or less than 10 nM, 11-50 nM, 51-100 nM, and 101-200 nM, respectively.
# T1 sequence (P01116 1-188 isoform P01116-2 G12D): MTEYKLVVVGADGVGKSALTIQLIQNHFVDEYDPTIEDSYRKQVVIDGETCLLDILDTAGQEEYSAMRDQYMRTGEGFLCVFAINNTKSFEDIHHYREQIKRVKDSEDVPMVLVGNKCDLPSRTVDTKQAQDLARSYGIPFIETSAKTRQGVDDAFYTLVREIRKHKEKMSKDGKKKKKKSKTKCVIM
row,SMILES,inhibition at 0.05 µM
1,C#Cc1c(F)ccc2cc(O)cc(-c3ncc4c(N5CC6CCC(C5)N6)nc(OCC5(CN6CCC7(CC6)CC(N6CCC(c8ccc9c(c8)C(=O)N(C8CCC(=O)NC8=O)C9=O)CC6)C7)CC5)nc4c3F)c12 (stereo not shown) [Compound 170],31 to 60%
2,C#Cc1c(F)ccc2cc(O)cc(-c3ncc4c(N5CC6CCC(C5)N6)nc(OCC5(CN6CCC7(CC6)CC(N6CCN(c8cccc9c8C(=O)N(C8CCC(=O)NC8=O)C9=O)CC6)C7)CC5)nc4c3F)c12 (stereo not shown) [Compound 153],31 to 60%
3,C#Cc1c(F)ccc2cc(O)cc(-c3ncc4c(N5CC6CCC(C5)N6)nc(OCC5(CN6CCC7(CCN(c8ccc(NC9CCC(=O)NC9=O)cc8F)CC7)C6)CC5)nc4c3F)c12 (stereo not shown) [Compound 125],31 to 60%
4,C#Cc1c(F)ccc2cc(O)cc(-c3ncc4c(N5CC6CCC(C5)N6)nc(OCC5(CN6CCC7(CC6)CC(Nc6ccc8c(C9CCC(=O)NC9=O)nn(C)c8c6)C7)CC5)nc4c3F)c12 (stereo not shown) [Compound 167],> 60%
5,C#Cc1c(F)ccc2cc(O)cc(-c3ncc4c(N5CC6CCC(C5)N6)nc(OCC5(CN6CCN(c7ccc(NC8CCC(=O)NC8=O)cc7F)CC6)CC5)nc4c3F)c12 (stereo not shown) [Compound 124],11 to 30%
6,C#Cc1c(F)ccc2cc(O)cc(-c3ncc4c(N5CC6CCC(C5)N6)nc(OCC5(CN6CC(CN7CCN(c8ccc(C(=O)NC9CCC(=O)NC9=O)nc8)CC7)C6)CC5)nc4c3F)c12 (stereo not shown) [Compound 134],11 to 30%
7,C#Cc1c(F)ccc2cc(O)cc(-c3ncc4c(N5CC6CCC(C5)N6)nc(OCC5(CN6CC(CN7CCC(c8ccc9c(C%10CCC(=O)NC%10=O)nn(C)c9c8)CC7)C6)CC5)nc4c3F)c12 (stereo not shown) [Compound 144],31 to 60%
8,C#Cc1c(F)ccc2cc(O)cc(-c3ncc4c(N5CC6CCC(C5)N6)nc(OCC5(CN6CCC(CNc7cccc8c(C9CCC(=O)NC9=O)nn(C)c78)CC6)CC5)nc4c3F)c12 (stereo not shown) [Compound 165],31 to 60%
9,C#Cc1c(F)ccc2cc(O)cc(-c3ncc4c(N5CC6CCC(C5)N6)nc(OCC5(CN6CCC(N7CCC(c8ccc9c(C%10CCC(=O)NC%10=O)nn(C)c9c8)CC7)C(F)(F)C6)CC5)nc4c3F)c12 (stereo not shown) [Compound 139],31 to 60%

# Same assay, conditions: ASPC1, 24 h, Aspc-1 cells treated with 0.1 μM compound, 24 hours; read-out: Rate of protein degradation (KRAS^G12D)
row,SMILES,inhibition at 0.1 µM
1,C#Cc1c(F)ccc2cc(O)cc(-c3ncc4c(N5CC6CCC(C5)N6)nc(OC5CCN(CCCCCCCCCCCCOc6cc(-c7ncsc7C)ccc6CNC(=O)[C@@H]6C[C@@H](O)CN6C(=O)[C@@H](NC(=O)C6(F)CC6)C(C)(C)C)CC5)nc4c3F)c12 [Compound 78],≤ 10%
2,C#Cc1c(F)ccc2cc(O)cc(-c3ncc4c(N5CC6CCC(C5)N6)nc(OCC5(CN6CCN(C7CC(C(=O)N8CCC(c9ccc%10c(C%11CCC(=O)NC%11=O)nn(C)c%10c9)CC8)C7)CC6)CC5)nc4c3F)c12 (stereo not shown) [Compound 118],> 60%
3,C#Cc1c(F)ccc2cc(O)cc(-c3ncc4c(N5CC6CCC(C5)N6)nc(OCC56CCCN5[C@@H](COC(=O)NCCCCCCCCCC(=O)N[C@H](C(=O)N5C[C@H](O)C[C@H]5C(=O)N[C@@H](C)c5ccc(-c7scnc7C)cc5)C(C)(C)C)CC6)nc4c3F)c12 (stereo partly shown) [Compound 98],31 to 60%
4,C#Cc1c(F)ccc2cc(O)cc(-c3ncc4c(N5CC6CCC(C5)N6)nc(O[C@H]5CCN(CCCCCCCCCCCC(=O)N[C@H](C(=O)N6C[C@H](O)C[C@H]6C(=O)N[C@@H](C)c6ccc(-c7scnc7C)cc6)C(C)(C)C)C5)nc4c3F)c12 [Compound 84],31 to 60%
5,C#Cc1c(F)ccc2cc(O)cc(-c3ncc4c(N5CC6CCC(C5)N6)nc(OCC5CCN(CC(=O)N6CCC(c7ccc8c(C9CCC(=O)NC9=O)nn(C)c8c7)CC6)C5)nc4c3F)c12 (stereo not shown) [Compound 94],31 to 60%
6,C#Cc1c(F)ccc2cc(O)cc(-c3ncc4c(N5CC6CCC(C5)N6)nc(OCC5CCN(CCCCCCCCCCC(=O)N[C@H](C(=O)N6C[C@H](O)C[C@H]6C(=O)N[C@@H](C)c6ccc(-c7scnc7C)cc6)C(C)(C)C)C5)nc4c3F)c12 (stereo partly shown) [Compound 56],31 to 60%
7,C#Cc1c(F)ccc2cc(O)cc(-c3ncc4c(N5CC6CCC(C5)N6)nc(O[C@@H]5CCN(CCCCCCCCCCC(=O)N[C@H](C(=O)N6C[C@H](O)C[C@H]6C(=O)N[C@@H](C)c6ccc(-c7scnc7C)cc6)C(C)(C)C)C5)nc4c3F)c12 [Compound 86],31 to 60%
8,C#Cc1c(F)ccc2cc(O)cc(-c3ncc4c(N5CC6CCC(C5)N6)nc(OC5CCN(CCCCCCCCCCC(=O)N[C@H](C(=O)N6C[C@H](O)C[C@H]6C(=O)N[C@@H](C)c6ccc(-c7scnc7C)cc6)C(C)(C)C)C5)nc4c3F)c12 (stereo partly shown) [Compound 55],> 60%
9,C#Cc1c(F)ccc2cc(O)cc(-c3ncc4c(N5CC6CCC(C5)N6)nc(OCC5(CN6CCN(c7ccc8c(c7)C(=O)N(C7CCC(=O)NC7=O)C8=O)CC6)CC5)nc4c3F)c12 (stereo not shown) [Compound 117],> 60%
10,C#Cc1c(F)ccc2cc(O)cc(-c3ncc4c(N5CC6CCC(C5)N6)nc(OC[C@@H]5C[C@@H](NC(=O)C6(C(=O)N7CCC(c8ccc9c(C%10CCC(=O)NC%10=O)nn(C)c9c8)CC7)CC6)CN5C)nc4c3F)c12 (stereo in doubt) [Compound 96],11 to 30%
11,C#Cc1c(F)ccc2cc(O)cc(-c3ncc4c(N5CC6CCC(C5)N6)nc(OCC5CCN(CCCCCCCCCCC(=O)N6CCC(c7ccc8c(C9CCC(=O)NC9=O)nn(C)c8c7)CC6)C5)nc4c3F)c12 (stereo not shown) [Compound 57],> 60%
12,C#Cc1c(F)ccc2cc(O)cc(-c3ncc4c(N5CC6CCC(C5)N6)nc(OC5CCN(CCCCCCCCOc6cc(-c7ncsc7C)ccc6CNC(=O)[C@@H]6C[C@@H](O)CN6C(=O)[C@@H](NC(=O)C6(F)CC6)C(C)(C)C)CC5)nc4c3F)c12 [Compound 76],≤ 10%
13,C#Cc1c(F)ccc2cc(O)cc(-c3ncc4c(N5CC6CCC(C5)N6)nc(O[C@@H]5CCN(CCCCCCCCCCCC(=O)N[C@H](C(=O)N6C[C@H](O)C[C@H]6C(=O)N[C@@H](C)c6ccc(-c7scnc7C)cc6)C(C)(C)C)C5)nc4c3F)c12 [Compound 87],31 to 60%

# Same assay, conditions: ASPC1, 24 h, Aspc-1 cells treated with 1 μM compound, 24 hours; read-out: Rate of protein degradation (KRAS^G12D)
row,SMILES,inhibition at 1 µM
1,C#Cc1c(F)ccc2cc(O)cc(-c3ncc4c(N5CC6CCC(C5)N6)nc(OC5CCN(CCOCCOCCOCC(=O)N[C@H](C(=O)N6C[C@H](O)C[C@H]6C(=O)NCc6ccc(-c7scnc7C)cc6)C(C)(C)C)CC5)nc4c3F)c12 [Compound 54],≤ 10%
2,C#Cc1c(F)ccc2cc(O)cc(-c3ncc4c(N5CC6CCC(C5)N6)nc(OCCCN5CCN(CCCCCC(=O)N[C@H](C(=O)N6C[C@H](O)C[C@H]6C(=O)NCc6ccc(-c7scnc7C)cc6)C(C)(C)C)CC5)nc4c3F)c12 [Compound 28],11 to 30%
3,C#Cc1c(F)ccc2cc(O)cc(-c3ncc4c(N5CC6CCC(C5)N6)nc(OCC5CCN(CCCCCCCCCCC(=O)N[C@H](C(=O)N6C[C@H](O)C[C@H]6C(=O)N[C@@H](C)c6ccc(-c7scnc7C)cc6)C(C)(C)C)C5)nc4c3F)c12 (stereo partly shown) [Compound 56],> 60%
4,C#Cc1c(F)ccc2cc(O)cc(-c3ncc4c(N5CC6CCC(C5)N6)nc(OC5CCN(CCCCCCCCCCC(=O)N[C@H](C(=O)N6C[C@H](O)C[C@H]6C(=O)N[C@@H](C)c6ccc(-c7scnc7C)cc6)C(C)(C)C)C5)nc4c3F)c12 (stereo partly shown) [Compound 55],> 60%
5,C#Cc1c(F)ccc2cc(O)cc(-c3ncc4c(N5CC6CCC(C5)N6)nc(OCC5CCN(CCCCCCCCCCC(=O)N6CCC(c7ccc8c(C9CCC(=O)NC9=O)nn(C)c8c7)CC6)C5)nc4c3F)c12 (stereo not shown) [Compound 57],> 60%

# Same assay, conditions: Aspc-1 cells treated with 0.1 μM compound, 24 hours
row,SMILES,Rate of protein degradation (KRAS^G12D)
1,C#Cc1c(F)ccc2cc(O)cc(-c3ncc4c(N5CC6CCC(C5)N6)nc(OCC5(CN6CCC(c7ccc8c(C9CCC(=O)NC9=O)nn(C)c8c7)CC6)CC5)nc4c3F)c12 (stereo not shown) [Compound 99],+++ (greater than 60%)
2,C#Cc1c(F)ccc2cc(O)cc(-c3ncc4c(N5CC6CCC(C5)N6)nc(OC[C@@H]5C[C@@H](NC(=O)CCCCCCC(=O)N[C@H](C(=O)N6C[C@H](O)C[C@H]6C(=O)N[C@@H](C)c6ccc(-c7scnc7C)cc6)C(C)(C)C)CN5C)nc4c3F)c12 [Compound 91],− (10% or less)

# Same assay, conditions: Aspc-1 cells; read-out: DC50 of test compound-induced KRAS^G12D protein degradation
row,SMILES,DC50
1,C#Cc1c(F)ccc2cc(O)cc(-c3ncc4c(N5CC6CCC(C5)N6)nc(OCC5(CN6CCN(C7CC(C(=O)N8CCC(c9ccc%10c(C%11CCC(=O)NC%11=O)nn(C)c%10c9)CC8)C7)CC6)CC5)nc4c3F)c12 (stereo not shown) [Compound 118],< 10 nM
2,C#Cc1c(F)ccc2cc(O)cc(-c3ncc4c(N5CC6CCC(C5)N6)nc(OCC5(CN6CCC(c7ccc8c(C9CCC(=O)NC9=O)nn(C)c8c7)CC6)CC5)nc4c3F)c12 (stereo not shown) [Compound 99],11 to 50 nM
